In the NIST ThermoML archive (doi:10.1007/s10765-010-0860-3):
± gives the expanded uncertainty stated by the source.

Test: xn = mol fraction of the nth substance listed
Details: 101 kPa, Liquid; for viscosity: Capillary tube (Ostwald / Ubbelohde) method; for mass density: Pycnometric method

CC1COC(=O)O1 (configuration not stated) [4-methyl-1,3-dioxolan-2-one] + C1COCCO1
Details | mass density, 288.15 K [kg/m3] | mass density, 298.15 K [kg/m3] | mass density, 308.15 K [kg/m3] | viscosity, 288.15 K [mPa·s] | viscosity, 298.15 K [mPa·s] | viscosity, 308.15 K [mPa·s]
x1 = 0.0213 | 1042.6 ± 0.92 | 1031.46 ± 0.92 | 1020.15 ± 0.93 | 1.429 ± 0.012 | 1.181 ± 0.01 | 1.027 ± 0.009
x1 = 0.041 | 1045.89 ± 0.92 | 1034.79 ± 0.92 | 1023.54 ± 0.93 | 1.421 ± 0.012 | 1.177 ± 0.01 | 1.027 ± 0.009
x1 = 0.0636 | 1049.76 ± 0.92 | 1038.7 ± 0.92 | 1027.51 ± 0.93 | 1.413 ± 0.012 | 1.174 ± 0.01 | 1.02 ± 0.009
x1 = 0.0823 | 1053.01 ± 0.92 | 1041.99 ± 0.91 | 1030.85 ± 0.93 | 1.408 ± 0.012 | 1.173 ± 0.01 | 1.026 ± 0.009
x1 = 0.0999 | 1056.12 ± 0.91 | 1045.13 ± 0.91 | 1034.02 ± 0.93 | 1.404 ± 0.012 | 1.172 ± 0.01 | 1.022 ± 0.009
x1 = 0.202 | 1074.8 ± 0.92 | 1064.02 ± 0.91 | 1053.09 ± 0.91 | 1.408 ± 0.012 | 1.184 ± 0.01 | 1.028 ± 0.009
x1 = 0.299 | 1093.28 ± 0.91 | 1082.69 ± 0.91 | 1071.87 ± 0.92 | 1.45 ± 0.012 | 1.22 ± 0.01 | 1.053 ± 0.009
x1 = 0.3991 | 1112.62 ± 0.92 | 1101.92 ± 0.91 | 1091.44 ± 0.92 | 1.534 ± 0.013 | 1.286 ± 0.011 | 1.102 ± 0.009
x1 = 0.4991 | 1131.72 ± 0.91 | 1121.15 ± 0.92 | 1110.7 ± 0.94 | 1.659 ± 0.014 | 1.381 ± 0.012 | 1.171 ± 0.01
x1 = 0.5987 | 1150.06 ± 0.91 | 1139.4 ± 0.92 | 1129.1 ± 0.95 | 1.826 ± 0.015 | 1.508 ± 0.013 | 1.274 ± 0.011
x1 = 0.6996 | 1167.4 ± 0.91 | 1156.75 ± 0.93 | 1146.43 ± 0.96 | 2.039 ± 0.017 | 1.671 ± 0.014 | 1.405 ± 0.012
x1 = 0.8049 | 1183.66 ± 0.91 | 1172.85 ± 0.94 | 1162.59 ± 0.98 | 2.307 ± 0.019 | 1.878 ± 0.016 | 1.571 ± 0.013
x1 = 0.9003 | 1196.16 ± 0.95 | 1185.45 ± 0.95 | 1175.02 ± 0.96 | 2.589 ± 0.021 | 2.101 ± 0.017 | 1.748 ± 0.015
x1 = 1 | 1208.67 ± 0.99 | 1197.58 ± 0.96 | 1187.16 ± 0.95 | 3.086 ± 0.025 | 2.5 ± 0.021 | 2.073 ± 0.017

CC(=O)CC(C)=O [2,4-pentanedione] + CC1COC(=O)O1
Details | mass density, 288.15 K [kg/m3] | mass density, 298.15 K [kg/m3] | mass density, 308.15 K [kg/m3] | viscosity, 288.15 K [mPa·s] | viscosity, 298.15 K [mPa·s] | viscosity, 308.15 K [mPa·s]
x2 = 0 | 980.34 ± 0.72 | 972.18 ± 0.73 | 963.46 ± 0.76 | 0.741 ± 0.006 | 0.67 ± 0.006 | 0.609 ± 0.005
x2 = 0.0212 | 984.24 ± 0.74 | 975.79 ± 0.75 | 966.83 ± 0.77 | 0.769 ± 0.007 | 0.692 ± 0.006 | 0.627 ± 0.006
x2 = 0.0438 | 988.61 ± 0.76 | 979.89 ± 0.76 | 970.69 ± 0.78 | 0.797 ± 0.007 | 0.714 ± 0.006 | 0.646 ± 0.006
x2 = 0.0625 | 992.42 ± 0.77 | 983.48 ± 0.78 | 974.11 ± 0.8 | 0.821 ± 0.007 | 0.732 ± 0.006 | 0.661 ± 0.006
x2 = 0.0827 | 996.68 ± 0.78 | 987.54 ± 0.79 | 977.99 ± 0.81 | 0.845 ± 0.007 | 0.751 ± 0.007 | 0.677 ± 0.006
x2 = 0.1026 | 1001.03 ± 0.79 | 991.71 ± 0.8 | 982 ± 0.82 | 0.868 ± 0.007 | 0.769 ± 0.007 | 0.693 ± 0.006
x2 = 0.201 | 1024.5 ± 0.89 | 1014.55 ± 0.85 | 1004.29 ± 0.81 | 0.978 ± 0.008 | 0.857 ± 0.007 | 0.766 ± 0.007
x2 = 0.2982 | 1050.05 ± 0.9 | 1039.83 ± 0.87 | 1029.34 ± 0.86 | 1.086 ± 0.009 | 0.944 ± 0.008 | 0.838 ± 0.007
x2 = 0.4028 | 1078.89 ± 0.89 | 1068.64 ± 0.89 | 1058.14 ± 0.9 | 1.215 ± 0.01 | 1.047 ± 0.009 | 0.922 ± 0.008
x2 = 0.5 | 1105.74 ± 0.87 | 1095.61 ± 0.9 | 1085.24 ± 0.93 | 1.359 ± 0.011 | 1.162 ± 0.01 | 1.014 ± 0.009
x2 = 0.6016 | 1132.67 ± 0.85 | 1122.7 ± 0.89 | 1112.52 ± 0.96 | 1.549 ± 0.013 | 1.313 ± 0.011 | 1.133 ± 0.01
x2 = 0.6985 | 1156.08 ± 0.83 | 1146.19 ± 0.9 | 1136.15 ± 0.98 | 1.782 ± 0.015 | 1.495 ± 0.013 | 1.277 ± 0.011
x2 = 0.7995 | 1176.95 ± 0.82 | 1166.95 ± 0.91 | 1156.95 ± 1 | 2.093 ± 0.017 | 1.735 ± 0.015 | 1.466 ± 0.012
x2 = 0.9016 | 1193.11 ± 0.94 | 1182.69 ± 0.93 | 1172.51 ± 0.94 | 2.493 ± 0.021 | 2.04 ± 0.017 | 1.706 ± 0.014

CC1COC(=O)O1 (configuration not stated) [4-methyl-1,3-dioxolan-2-one] + C1CCOC1
Details | mass density, 288.15 K [kg/m3] | mass density, 298.15 K [kg/m3] | mass density, 308.15 K [kg/m3] | viscosity, 288.15 K [mPa·s] | viscosity, 298.15 K [mPa·s] | viscosity, 308.15 K [mPa·s]
x1 = 0.0188 | 901.15 ± 0.85 | 890.25 ± 0.86 | 879.17 ± 0.87 | 0.524 ± 0.005 | 0.47 ± 0.004 | 0.432 ± 0.004
x1 = 0.0393 | 910.03 ± 0.85 | 899.18 ± 0.86 | 888.14 ± 0.88 | 0.542 ± 0.005 | 0.479 ± 0.004 | 0.439 ± 0.004
x1 = 0.0603 | 918.97 ± 0.85 | 908.19 ± 0.86 | 897.18 ± 0.88 | 0.561 ± 0.005 | 0.49 ± 0.004 | 0.448 ± 0.004
x1 = 0.077 | 926 ± 0.85 | 915.27 ± 0.86 | 904.28 ± 0.88 | 0.575 ± 0.005 | 0.5 ± 0.005 | 0.455 ± 0.004
x1 = 0.0988 | 935.05 ± 0.85 | 924.38 ± 0.86 | 913.41 ± 0.88 | 0.594 ± 0.005 | 0.513 ± 0.005 | 0.466 ± 0.004
x1 = 0.2117 | 979.75 ± 0.79 | 969.45 ± 0.87 | 958.45 ± 0.96 | 0.696 ± 0.006 | 0.6 ± 0.005 | 0.541 ± 0.005
x1 = 0.3057 | 1014.39 ± 0.82 | 1004.06 ± 0.88 | 993.26 ± 0.95 | 0.794 ± 0.007 | 0.699 ± 0.006 | 0.629 ± 0.006
x1 = 0.4024 | 1047.72 ± 0.85 | 1037.25 ± 0.89 | 1026.68 ± 0.94 | 0.921 ± 0.008 | 0.831 ± 0.007 | 0.745 ± 0.007
x1 = 0.4992 | 1078.98 ± 0.87 | 1068.45 ± 0.9 | 1057.96 ± 0.95 | 1.088 ± 0.009 | 0.998 ± 0.009 | 0.89 ± 0.008
x1 = 0.5997 | 1109.33 ± 0.88 | 1098.74 ± 0.91 | 1088.29 ± 0.95 | 1.317 ± 0.011 | 1.211 ± 0.01 | 1.072 ± 0.009
x1 = 0.7015 | 1138.16 ± 0.9 | 1127.39 ± 0.92 | 1117.06 ± 0.95 | 1.626 ± 0.014 | 1.473 ± 0.012 | 1.289 ± 0.011
x1 = 0.8033 | 1165.19 ± 0.91 | 1154.55 ± 0.93 | 1144.02 ± 0.97 | 2.03 ± 0.017 | 1.786 ± 0.015 | 1.54 ± 0.013
x1 = 0.9064 | 1190.96 ± 0.88 | 1179.68 ± 0.95 | 1169.74 ± 1 | 2.556 ± 0.021 | 2.158 ± 0.018 | 1.83 ± 0.015
x1 = 1 | 1208.67 ± 0.99 | 1197.58 ± 0.96 | 1187.16 ± 0.95 | 3.086 ± 0.025 | 2.5 ± 0.021 | 2.073 ± 0.017
